Measurements from US20250241926A1, “HETEROCYCLIC COMPOUNDS FOR USE IN THE TREATMENT OF CANCER” (ARTIOS PHARMA LIMITED, priority 2021, published 2025).

Biological target: T1, Human Polθ polymerase domain (aa1820-2590) (Homo sapiens, UniProt O75417)
T1 construct: Human Polθ polymerase domain (aa1820-2590) was expressed in E. Coli; made in house; host or cells: E. coli
T1 sequence (O75417 1820-2590): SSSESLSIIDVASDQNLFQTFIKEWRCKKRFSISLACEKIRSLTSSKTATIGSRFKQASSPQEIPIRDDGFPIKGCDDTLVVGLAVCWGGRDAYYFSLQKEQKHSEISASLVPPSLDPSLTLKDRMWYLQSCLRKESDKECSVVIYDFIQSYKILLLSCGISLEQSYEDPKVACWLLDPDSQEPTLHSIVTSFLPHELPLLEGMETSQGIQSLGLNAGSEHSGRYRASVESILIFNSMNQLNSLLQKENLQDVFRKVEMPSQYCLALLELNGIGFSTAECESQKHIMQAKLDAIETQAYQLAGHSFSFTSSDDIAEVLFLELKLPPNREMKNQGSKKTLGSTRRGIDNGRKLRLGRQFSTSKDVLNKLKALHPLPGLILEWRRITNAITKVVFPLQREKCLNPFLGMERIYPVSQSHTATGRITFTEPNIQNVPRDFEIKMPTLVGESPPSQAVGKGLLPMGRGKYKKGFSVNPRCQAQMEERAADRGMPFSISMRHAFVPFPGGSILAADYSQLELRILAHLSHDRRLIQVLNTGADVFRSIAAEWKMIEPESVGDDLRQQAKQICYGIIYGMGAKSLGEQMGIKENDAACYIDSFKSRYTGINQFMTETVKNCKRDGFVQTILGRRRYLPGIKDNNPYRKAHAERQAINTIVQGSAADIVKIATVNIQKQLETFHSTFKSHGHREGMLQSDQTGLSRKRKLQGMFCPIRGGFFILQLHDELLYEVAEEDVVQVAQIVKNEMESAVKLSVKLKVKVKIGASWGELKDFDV
Experiment: Polθ Polymerase Domain Kinact/Kl Assay (PicoGreen)
Assay type: biochemical
Conditions: covalent inhibitors, kobs vs [I] fit, 0.8 nM Polθ, 100 nM DNA substrate
Experimental: Polθ Polymerase Domain Kinact/Kl Assay
A PicoGreen assay was used to measure the Kinact and Kl values of covalent compounds that inhibit the activity of Polθ in vitro.
Human Polθ polymerase domain (aa1820-2590) was expressed in E. Coli, purified, aliquoted and stored at −80° C. until required. Polθ substrate was generated from a 1.2:1 mix of DNA II Short to DNA II Long to give a final concentration of […] substrate in annealing buffer (20 mM Tris pH 7.5, 50 mM NaCl). The substrate was heated in 50 mL aliquots to 95° C. in a heating block for 5 min before the heating block switched off, the reaction left to cool to rt and stored at −20° C. until required.
Assay measurements were performed with 1× buffer comprising 25 mM Tris pH 7.5, 12.5 mM NaCl, […], 5% (v/v) glycerol, 0.01% v/v Triton x-100, 0.1 mg/ml BSA, 1 mM DTT. Test compounds were prepared by dilution in 100% DMSO to give a 12 μM intermediate stock of each (100× final top concentration). 100 nL of 23× 1:1.5-fold serial dilutions and a DMSO only control were dispensed using the Tecan dispenser into Greiner 384 well black low volume plates (product code 784076). DMSO concentration was maintained at 1% of the final assay volume by back filling with DMSO.
2× Working stock of substrate (200 nM of DNA substrate and […] dNTPs) and enzyme (1.4 nM Polθ) were made up in assay buffer. 5 μL/well of both enzyme and substrate 2× solutions were dispensed using a Tempest dispenser (Formulatrix) into assay plates that had been pre-dispensed with compound to give a final assay concentration of 100 nM DNA substrate, […] dNTPs and 0.8 nM Polθ. To stop the reaction, […] of a solution containing 25 mM Tris-HCl pH 7.5 and 20 mM EDTA was added at […] (t=0, 2.5, 5, 7.5, 10, 12.5, 15, 20, 25, 30, 35, 40, 45, 50, 55 and 60 min) using the Tempest's time delay function. The plates were covered during the time course to prevent evaporation. After completing the assay, 5 μL of detection reagent (25 mM Tris-HCl pH 7.5 and 2.5% (v/v) PicoGreen) was dispensed into the wells using a Tempest liquid handler (Formulatrix) and plates subsequently read on the CLARIOstar Plus (BMG Labtech) using the default optical settings for fluorescein and the auto gain/focus settings.
All data analysis was carried out using GraphPad Prism V. 8 (GraphPad Software Inc, San Diego, CA) Time course data for each inhibitor concentration was fitted to equation 1 to determine kobs values.^1 Any time points where the control (DMSO alone) reaction was no longer linear were excluded from the analysis.
A secondary plot of kobs vs [I] is used to determine the Kinact and Kl parameters (for a 2-step covalent inhibitor) by fitting to equation 2.1
[formula] • 1) Evaluation of Enzyme Inhibitors in Drug Discovery (Ch9), R. A Copeland, Wiley, 2nd Edition 2013.

Row | Compound | kinact/KI
1 | (S)-2-((6-(2-(4-(1-Acrylo- ylazetidin-3-yl)piperazin- 1-yl)ethyl)-7-fluoro-1- methyl-2-oxo-1,2,3,4,5,6- hexahydrobenzo[b][1,4] diazocin-3-yl)amino)-6- methyl-4-(trifluorometh- yl)nicotinonitrile [Example 11] | 500000 M⁻¹ s⁻¹
2 | (S,E)-2-((6-(2-((2- (4-(Dimethyl- amino)but-2-eno- yl)-2-azaspiro[3.3] heptan-6-yl)-oxy)- ethyl)-7-fluoro-1- methyl-2-oxo- 1,2,3,4,5,6-hexa- hydrobenzo[b] [1,4]diazocin-3- yl)amino)-6-meth- yl-4-(trifluoro- methyl)nicotino- nitrile [Example 45] | 5.7e+06 M⁻¹ s⁻¹
3 | 2-(((3S)-6-(2-(7- ((E)-4-(Dimethyl- amino)but-2-eno- yl)-1-oxo-2,7- diazaspiro[4.4] nonan-2-yl)ethyl)- 7-fluoro-1- methyl-2-oxo- 1,2,3,4,5,6-hexa- hydrobenzo[b] [1,4]diazocin-3- yl)amino)-6-meth- yl-4-(trifluoro- methyl)nicotino- nitrile [Example 47] | 380000 M⁻¹ s⁻¹

Same assay, conditions: covalent inhibitors, kobs vs [I] fit, 0.8 nM Polθ, 100 nM DNA substrate, read-out: Kinact/KI

Row | Compound | kinact/KI
4 | C=CC(=O)N1CC(OCCCN2CC[C@H](Nc3nc(C)cc(C(F)(F)F)c3C#N)C(=O)N(C)c3ccccc32)C1 [Example 53, (S)-2-((6-(3-((1-Acryloylazetidin-3-yl)oxy)propyl)-1-methyl-2-oxo-1,2,3,4,5,6-hexahydrobenzo[b][1,4]diazocin-3-yl)amino)-6-methyl-4-(trifluoromethyl)nicotinonitrile] | 500000 M⁻¹ s⁻¹
5 | C#CCOC(=O)N1CCN(CCN2CC[C@H](Nc3nc(C)cc(C(F)(F)F)c3C#N)C(=O)N(C)c3cccc(F)c32)CC12CN(C(=O)/C=C/CN(C)C)C2 [Example 27, (S,E)-Prop-2-yn-1-yl 8-(2-(4-((3-cyano-6-methyl-4-(trifluoromethyl)pyridin-2-yl)amino)-10-fluoro-6-methyl-5-oxo-3,4,5,6-tetrahydrobenzo[b][1,4]diazocin-1(2H)-yl)ethyl)-2-(4-(dimethylamino)but-2-enoyl)-2,5,8-triazaspiro[3.5]nonane-5-carboxylate] | 940000 M⁻¹ s⁻¹
6 | C#CCN(C)C/C=C/C(=O)N1CC(OCCCN2CC[C@H](Nc3nc(C)cc(C(F)(F)F)c3C#N)C(=O)N(C)c3cccc(F)c32)C1 [Example 57, (S,E)-2-((7-Fluoro-1-methyl-6-(3-((1-(4-(methyl(prop-2-yn-1-yl)amino)but-2-enoyl)azetidin-3-yl)oxy)propyl)-2-oxo-1,2,3,4,5,6-hexahydrobenzo[b][1,4]diazocin-3-yl)amino)-6-methyl-4-(trifluoromethyl)nicotinonitrile] | 300000 M⁻¹ s⁻¹
7 | Cc1cc(C(F)(F)F)c(C#N)c(N[C@H]2CCN(CCCOC3CN(C(=O)/C=C/CN(C)C)C3)c3ccccc3N(C)C2=O)n1 [Example 41, (S, E)-2-((6-(3-((1-(4-(Dimethylamino)but-2-enoyl)azetidin-3-yl)oxy)propyl)-1-methyl-2-oxo-1,2,3,4,5,6-hexahydrobenzo[b][1,4]diazocin-3-yl)amino)-6-methyl-4-(trifluoromethyl)nicotinonitrile] | 1.4e+06 M⁻¹ s⁻¹
8 | C=CC(=O)N1CC(OC2CCN(CCN3CC[C@H](Nc4nc(C)cc(C(F)(F)F)c4C#N)C(=O)N(C)c4cccc(F)c43)CC2)C1 [Example 13, (S)-2-((6-(2-(4-((1-Acrylo-ylazetidin-3-yl)oxy)piper-idin-1-yl)ethyl)-7-fluoro-1-methyl-2-oxo-1,2,3,4,5,6-hexahydrobenzo[b][1,4]diazocin-3-yl)amino)-6-methyl-4-(trifluorometh-yl)nicotinonitrile] | 320000 M⁻¹ s⁻¹
9 | C=CC(=O)N1CC2(CN(CCN3CC[C@H](Nc4nc(C)cc(C(F)(F)F)c4C#N)C(=O)N(C)c4ccccc43)CCO2)C1 [Example 21, (S)-2-((6-(2-(2-Acryloyl-5-oxa-2,8-diazaspiro[3.5]nonan-8-yl)ethyl)-1-meth-yl-2-oxo-1,2,3,4,5,6-hexa-hydrobenzo[b][1,4]diazocin-3-yl)amino)-6-methyl-4-(trifluorometh-yl)nicotinonitrile] | 1.2e+06 M⁻¹ s⁻¹
10 | Cc1cc(C(F)(F)F)c(C#N)c(N[C@H]2CCN(CCN3CCOC4(C3)CN(C(=O)/C=C/CN(C)C)C4)c3c(F)cccc3N(C)C2=O)n1 [Example 1, (S,E)-2-((6-(2-(2-(4-(Dimethylamino)but-2-enoyl)-5-oxa-2,8-diazaspiro[3.5]nonan-8-yl)ethyl)-7-fluoro-1-methyl-2-oxo-1,2,3,4,5,6-hexahydrobenzo[b][1,4]diazocin-3-yl)amino)-6-methyl-4-(trifluoromethyl)nicotinonitrile] | 3.1e+06 M⁻¹ s⁻¹
11 | C=CC(=O)N1CC2(CN(CCN3CC[C@H](Nc4nc(C)cc(C(F)(F)F)c4C#N)C(=O)N(C)c4cccc(F)c43)C[C@H]3COCCN32)C1 [Example 62, 2-(((S)-6-(2-((S)-1-Acryloyltetrahydro-1′H-spiro[azetidine-3,6′-pyrazino[2,1-c][1,4]oxazin]-8′(7′H)-yl)ethyl)-7-fluoro-1-methyl-2-oxo-1,2,3,4,5,6-hexahydrobenzo[b][1,4]diazocin-3-yl)amino)-6-methyl-4-(trifluoromethyl)nicotinonitrile] | 1.8e+06 M⁻¹ s⁻¹
12 | Cc1cc(C(F)(F)F)c(C#N)c(N[C@H]2CCN(CCN(C)C(=O)[C@@H]3CCN(C(=O)/C=C/CN(C)C)C3)c3ccccc3N(C)C2=O)n1 [Example 30, (R)—N-(2-((S)-4-((3-Cyano-6-methyl-4-(trifluoromethyl)pyridin-2-yl)amino)-6-methyl-5-oxo-3,4,5,6-tetrahydrobenzo[b][1,4]diazocin-1(2H)-yl)ethyl)-1-((E)-4-(dimethylamino)but-2-enoyl)-N-methylpyrrolidine-3-carboxamide] | 690000 M⁻¹ s⁻¹
13 | C=CC(=O)N1CC2(CN(CCN3CC[C@H](Nc4nc(C)cc(C(F)(F)F)c4C#N)C(=O)N(C)c4cccc(F)c43)C[C@@H]3COCCN32)C1 [Example 61, 2-(((S)-6-(2-((R)-1-A cryloyltetrahydro-1′H-spiro[azetidine-3,6′-pyrazino[2,1-c][1,4]oxazin]-8′(7′H)-yl)ethyl)-7-fluoro-1-methyl-2-oxo-1,2,3,4,5,6-hexahydrobenzo[b][1,4]diazocin-3-yl)amino)-6-methyl-4-(trifluoromethyl)nicotinonitrile] | 500000 M⁻¹ s⁻¹
14 | C=CC(=O)N1CC(N2CCN(CCN3CC[C@H](Nc4nc(C)cc(C(F)(F)F)c4C#N)C(=O)N(C)c4cccc(F)c43)C[C@H]2C)C1 [Example 16, 2-(((S)-6-(2-((R)-4-(1-Acryloylazetidin-3-yl)-3-methylpiperazin-1-yl)-ethyl)-7-fluoro-1-methyl-2-oxo-1,2,3,4,5,6-hexa-hydrobenzo[b][1,4]diazocin-3-yl)amino)-6-methyl-4-(trifluorometh-yl)nicotinonitrile] | 540000 M⁻¹ s⁻¹
